The nature of data set [1]: Content of BBE compounds in rat tissues after repeated peroral oleogel administration. As to conditions: for Content in heart, liver, kidney, brain tissues: oleogel half dose daily 7 days, 24 h after last administration, level of quantification 50 ng/g.
A short description of data set [2]: Pozharitskaya study: betulin in blood plasma after endotracheal administration. It is filed as in vivo, rat. The following applies: cross-study comparison.
Details of data set [3]: method as in PMID 27155877. The following applies: endotracheal route; nanoparticles 25.2 mg/kg; cited from earlier work.
For data set [4] the following is noted: oral in olive oil, 200 mg/kg, mice; cited from earlier work.
The nature of data set [5]: Betulin, lupeol and betulinic acid in rat blood plasma after peroral administration of BBE dispersed systems (LC/MS/MS).
For data set [6] the following is noted: male, Wistar, rat, in vivo.
Data set [7] can be described thus: Oxidative stability (Oxipres, high-pressure oxygen bomb method). It is filed as physicochemical. The following applies: antioxidants 0.33%. Here is the method:
Due to their high oil content, oleogels are characterized by instability in an oxygen environment, so at the beginning of the study, an oxidative stability test of the oleogel was performed, which was compared with a pure sunflower oil sample and an oil sample containing TBHQ (tertiary butylhydroquinone).
To determine the oxidative stability, the oleogel was compared with a sunflower oil alone (blank sample) and a sample of sunflower oil with the addition of TBHQ (tertiary butylhydroquinone), which is widely used as an effective food antioxidant. TBHQ was added to the oil at a concentration equivalent to the concentration of polyphenols in the oleogel—0.33% (determined in previous studies).
An Oxipres ML 3,047,312 machine (Mikrolab Aarhus, Aarhus, Denmark) was used to determine oxidative stability. This equipment is a modification of the high-pressure oxygen bomb method (by standard ASTM D942), the principle of which is to oxidize substrates with oxygen. Enough sample was weighed into glass containers to contain 5 g of substrate. […] The protection factor (PF) is calculated according to the formula PF = […], where IPx is the induction period for the sample with antioxidant additives, hours; IPk is the induction period for the sample without antioxidant additives or the “blank sample”, hours. Using that formula, the oxidative stability was determined and compared among samples.

The mark [8] stands for this setting: oleogel half dose daily for 7 days.

“Also recorded” adds a separate entry of the source.

With `C=C(C)[C@@H]1CC[C@]2(C(=O)O)CC[C@]3(C)[C@H](CC[C@@H]4[C@@]5(C)CC[C@H](O)C(C)(C)[C@@H]5CC[C@]43C)[C@@H]12` [betulinic acid], in data set [1], the “Content in heart, liver, kidney, brain tissues” value was “not detected; also recorded: not found”.
As to `C=C(C)[C@@H]1CC[C@]2(CO)CC[C@]3(C)[C@H](CC[C@@H]4[C@@]5(C)CC[C@H](O)C(C)(C)[C@@H]5CC[C@]43C)[C@@H]12` [betulin powder], the “Plasma level, times higher than aqueous suspension of BBE powder in this study” value in data set [2] is listed as approximately 1000 times. Besides, in data set [3], the “Betulin in blood plasma” value was 6.9 µg/mL.
As for `C=C(C)[C@@H]1CC[C@]2(C)CC[C@]3(C)[C@H](CC[C@@H]4[C@@]5(C)CC[C@H](O)C(C)(C)[C@@H]5CC[C@]43C)[C@@H]12` [lupeol], in data set [1] (setting [8]), the “Lupeol content in brain” value is reported as “not found”, the “Lupeol content in kidneys” value is recorded as “about 250 ng/g tissue” and the “Lupeol content in liver” value is on record as “about 21 ng/g tissue”. The “Lupeol concentration in blood plasma” value in data set [4] is recorded as 6 ng/µL. In addition, in data set [5] (considering the lower dose of lupeol), the “Lupeol bioavailability from the oleogel, times better than betulin bioavailability” value worked out at 20 times. For the same compound, in data set [5] (peroral BBE systems), the “Lupeol exposure, times higher than betulin exposure” value was “about 3 times”. Further, the “Lupeol content in heart” value in data set [6] is given as “about 250 ng/g tissue”.
Regarding `C=C(C)[C@@H]1CC[C@]2(CO)CC[C@]3(C)[C@H](CC[C@@H]4[C@@]5(C)CC[C@H](O)C(C)(C)[C@@H]5CC[C@]43C)[C@@H]12` [betulin], in data set [1], the “Content in heart, liver, kidney, brain tissues” value is on record as “not detected; also recorded: not found”.
With `CC(C)(C)c1cc(O)ccc1O` [TBHQ in oil, tertiary butylhydroquinone], the Induction period in data set [7] (oxygen 8–8.5 bar, 120 °C) was 3.5 h. The compound further gave a Protection factor in data set [7] (vs blank sunflower oil) of 2.7.

Values taken from publication PMC10780823, “Innovative Approach to Enhance Bioavailability of Birch Bark Extracts: Novel Method of Oleogel Development Contrasted with Other Dispersed Systems” (Plants, 2024).
